The term IC50 denotes the midpoint of a concentration-inhibition curve. Read a low IC50 as greater potency. In general, GI50 refers to the concentration giving 50% growth inhibition. Read a low GI50 as more potent growth inhibition.

For series [1], the system named is splicing of Ad2.1 pre-mRNA in HeLa nuclear extract. The series can be described thus: In vitro splicing (IVS), qPCR readout, Ad2.1 substrate. The class given is biochemical. How it is done:
(§1) To evaluate payload activity in a cell-free system, an in vitro splicing assay was performed. The payloads were incubated with nuclear extracts and pre-mRNA substrate minigenes.
(§2) HeLa nuclear extract preparation: HeLa S3 cell pellets were resuspended in hypotonic buffer (10 mM HEPES pH 7.9, 1.5 mM MgCl2, 10 mM KCl, 0.2 mM PMSF, 0.5 mM DTT) and the suspension was brought up to a total of 5 packed cell volume (PCV). After centrifugation, the supernatant was discarded, and the cells were brought up to 3 PCV with hypotonic buffer and incubated on ice for 10 min. Cells were lysed using a dounce homogenizer and then centrifuged. The supernatant was discarded, and the pellet was resuspended with ½ packed nuclear volume (PNV) of low salt buffer (20 mM HEPES pH 7.9, 1.5 mM MgCl2, 20 mM KCl, 0.2 mM EDTA, 25% glycerol, 0.2 mM PMSF, 0.5 mM DTT), followed by ½ PNV of high salt buffer (same as low salt buffer except 1.4 M KCl). The nuclei were gently mixed for 30 min before centrifuging. The supernatant (nuclear extract) was then dialyzed into storage buffer (20 mM HEPES pH 7.9, 100 mM KCl, 0.2 mM EDTA, 20% glycerol, 0.2 mM PMSF, 0.5 mM DTT). Protein concentration was determined using NanoDrop 8000 UV-Vis spectrophotometer (ThermoFisher Scientific). […]

Series [2] deals with splicing of Ad2.2 pre-mRNA in HeLa nuclear extract. The series can be described thus: In vitro splicing (IVS), qPCR readout, Ad2.2 substrate. It counts as biochemical. How it is done:
as §1, §2
In general terms: Real-time PCR tracks product formation cycle by cycle.

The next series relates to AMO-1 cells. The series can be described thus: 6-day CellTiter-Glo cell viability, AMO-1. The class given is cell-based, human. Background: Cellular ATP, detected with luciferase, serves as a proxy for viable cell number.
The test system of a further series is RPMI-8226 cells. The series can be described thus: 6-day CellTiter-Glo cell viability, RPMI-8226. The class given is cell-based, human.
The subject of another series is U266B1 cells. The series can be described thus: 6-day CellTiter-Glo cell viability, U266B1. The class given is cell-based, human.
The next series is described as follows: PAMPA permeability. The class given is in vitro ADME. As to conditions: read-out: Stability, Mean, Perm PAMPA. In general terms: The PAMPA barrier holds no transporters, so it reflects passive diffusion.

`CC[C@H](O)[C@@H](C)[C@H]1O[C@@H]1C[C@@](C)(O)/C=C/C=C(\C)[C@H]1OC(=O)C[C@H](O)CC[C@@](C)(O)[C@@H](OC(=O)N2CCNCC2)/C=C/[C@@H]1C` [D1, (2S,3S,6S,7R,10R,E)-7,10-dihydroxy-2-((R,2E,4E)-6-hydroxy-7-((2R,3R)-3-((2R,3S)-3-hydroxypentan-2-yl)oxiran-2-yl)-6-methylhepta-2,4-dien-2-yl)-3,7-dimethyl-12-oxooxacyclododec-4-en-6-yl piperazine-1-carboxylate]: the IC50 amounted to 16.5 nM in series [1] and 25 nM in series [2]. In addition, the “AUC (nM * % relative viability)” value was 797.7136 nM * % relative viability in the series on AMO-1 cells (AMO1 cells, 6 days); 648.8833 nM * % relative viability with RPMI-8226 cells (RPMI8226 cells, 6 days); 712.6903 nM * % relative viability in the series on U266B1 cells (U266B1 cells, 6 days). Moreover, the LD50 is listed as 1689.735 nM in the series with AMO-1 cells (AMO1 cells, 6 days, CellTiter-Glo); 253.1965 nM in the series on RPMI-8226 cells (RPMI8226 cells, 6 days, CellTiter-Glo); 504.8119 nM in the series on U266B1 cells (U266B1 cells, 6 days, CellTiter-Glo). Further, the RminAve in the series with AMO-1 cells (AMO1 cells, 6 days, negative = cell death vs T0) is on record as −99.4709%; in the series with RPMI-8226 cells (RPMI8226 cells, 6 days, negative = cell death vs T0) it was −99.6002%; with U266B1 cells (U266B1 cells, 6 days, negative = cell death vs T0), −94.2191%. The GI50 amounted to 567 nM in the series on AMO-1 cells (Homo sapiens, AMO1, 144 h); 122 nM in the series on RPMI-8226 cells (Homo sapiens, RPMI-8226, 144 h); 238 nM in the series with U266B1 cells (Homo sapiens, 144 h). Also, in “PAMPA permeability”, the Papp is < 0.1 ×10⁻⁶ cm/s.

These data come from US12043670B2, “Anti-BCMA antibody-drug conjugates and methods of use” (Eisai R&D Management Co., Ltd., priority 2020, dated 2024).
